Data as given in patent US9840467B2, “Arylhydrazides containing a 2-pyridone moiety as selective antibacterial agents” (ABAC THERAPEUTICS, S.L., priority 2014, dated 2017).
Values after ≈ are worked out from the molar mass of the structure shown. Where two headings read alike, the source gives them in different places.

Assays:
A. baumannii = assay: MIC, CLSI microtiter dilution, A. baumannii; type: cell-based, Acinetobacter baumannii
Experimental: (§1) The products of the present invention were tested for their activity against A. baumannii as well as against the following bacteria: Staphylococcus aureus (S. aureus), Streptococcus pneumoniae (S. pneumoniae), Enterococcus faecium (E. faecium), Pseudomonas aeruginosa (P. aeruginosa), Klebsiella pneumoniae (K. pneumoniae.), Enterobacter aerogenes (E. aerogenes) and Escherichia coli (E. coli).
(§2) Minimal inhibitory concentrations (MICs) were determined using a standard microtiter dilution method, according to the Clinical and Laboratory Standards Institute (CLSI) procedures, in particular according to M07-A9: “Methods for Dilution Antimicrobial Susceptibility Tests for Bacteria That Grow Aerobically; Approved Standard—Ninth Edition”.
(§3) Briefly, compounds were dissolved with dimethyl sulfoxide (DMSO) at 12.8 mg/mL. Serial two-fold dilutions of compounds were performed in DMSO and 1 μl of each dilution were transferred into microtiter culture plates, followed by 100 μl of inoculated culture media to give a final microorganism concentration of 5×10^5 colony-forming units/mL. Plates were incubated at 37° C. for 24 hours and MICs determined as the lowest compound concentration that inhibited growth. Media used in determinations were Cation adjusted Mueller-Hinton Broth for all the microorganisms except for S. pneumoniae and E. faecium whose culture media were supplemented with 2.5% of lysed horse blood. Incubations were performed at air atmosphere except S. pneumoniae cultures that were incubated with 5% CO2 atmosphere.

S. aureus = assay: MIC, CLSI microtiter dilution, S. aureus; type: cell-based, Staphylococcus aureus
Experimental: as §1, §2, §3

S. pneumoniae = assay: MIC, CLSI microtiter dilution, S. pneumoniae; type: cell-based, Streptococcus pneumoniae
Experimental: as §1, §2, §3

E. faecium = assay: MIC, CLSI microtiter dilution, E. faecium; type: cell-based, Enterococcus faecium
Experimental: as §1, §2, §3

P. aeruginosa = assay: MIC, CLSI microtiter dilution, P. aeruginosa; type: cell-based, Pseudomonas aeruginosa
Experimental: as §1, §2, §3

K. pneumoniae = assay: MIC, CLSI microtiter dilution, K. pneumoniae; type: cell-based, Klebsiella pneumoniae
Experimental: as §1, §2, §3

E. aerogenes = assay: MIC, CLSI microtiter dilution, E. aerogenes; type: cell-based, Enterobacter aerogenes
Experimental: as §1, §2, §3

E. coli = assay: MIC, CLSI microtiter dilution, E. coli; type: cell-based, Escherichia coli
Experimental: as §1, §2, §3

[1] = Acinetobacter baumannii, A. baumannii, 37° C., 24 hours, Cation adjusted Mueller-Hinton Broth, read-out: MIC
[2] = Staphylococcus aureus, S. aureus, 37° C., 24 hours, Cation adjusted Mueller-Hinton Broth, read-out: MIC
[3] = Streptococcus pneumoniae, S. pneumoniae, 37° C., 24 hours, 2.5% lysed horse blood, 5% CO2, read-out: MIC
[4] = Enterococcus faecium, E. faecium, 37° C., 24 hours, 2.5% lysed horse blood, read-out: MIC
[5] = Pseudomonas aeruginosa, P. aeruginosa, 37° C., 24 hours, Cation adjusted Mueller-Hinton Broth, read-out: MIC
[6] = Klebsiella pneumoniae, K. pneumoniae, 37° C., 24 hours, Cation adjusted Mueller-Hinton Broth, read-out: MIC
[7] = Klebsiella aerogenes, E. aerogenes, 37° C., 24 hours, Cation adjusted Mueller-Hinton Broth, read-out: MIC
[8] = Escherichia coli, E. coli, 37° C., 24 hours, Cation adjusted Mueller-Hinton Broth, read-out: MIC

Compound | MIC (A. baumannii; [1]) [µg/mL] | MIC (S. aureus; [2]) [µg/mL] | MIC (S. pneumoniae; [3]) [µg/mL] | MIC (E. faecium; [4]) [µg/mL] | MIC (P. aeruginosa; [5]) [µg/mL] | MIC (K. pneumoniae; [6]) [µg/mL] | MIC (E. aerogenes; [7]) [µg/mL] | MIC (E. coli; [8]) [µg/mL] | MIC (A. baumannii; Acinetobacter baumannii, 24 h) [µg/mL] | MIC (S. aureus; Staphylococcus aureus, 24 h) [µg/mL] | MIC (S. pneumoniae; Streptococcus pneumoniae, 24 h) [µg/mL] | MIC (E. faecium; Enterococcus faecium, 24 h) [µg/mL] | MIC (P. aeruginosa; Pseudomonas aeruginosa, 24 h) [µg/mL] | MIC (K. pneumoniae; Klebsiella pneumoniae, 24 h) [µg/mL] | MIC (E. aerogenes; Klebsiella aerogenes, 24 h) [µg/mL] | MIC (E. coli; Escherichia coli, 24 h) [µg/mL] | further results
O=C(NNc1ccc(F)cc1)c1cccc(=O)n1C(F)F [Ex. 4, 1-Difluoromethyl-6-oxo-1,6-dihydro-pyridine-2-carboxylic acid N′-(4-fluorophenyl)-hydrazide] | 1 (≈ 3.36 µM) | > 128 | > 128 | > 128 | > 128 | > 128 | > 128 | > 128 |  |  |  |  |  |  |  |  | 
C#CCn1c(C(=O)NNc2ccc(F)cc2)cccc1=O [Ex. 7, 1-(Prop-2-yn-1-yl)-6-oxo-1,6-dihydropyridine-2-carboxylic acid N′-(4-fluorophenyl)-hydrazide] |  |  |  |  |  |  |  |  | 0.25 (≈ 0.876 µM) | > 128 | > 128 | > 128 | > 128 | > 128 | > 128 | > 128 | 
O=C(NNc1ccc(F)cc1)c1cccc(=O)n1Cc1ccccc1 [Ex. 5, 1-Benzyl-6-oxo-1,6-dihydro-pyridine-2-carboxylic acid N′-(4-fluorophenyl)-hydrazide] | 0.25 (≈ 0.741 µM) | > 128 | > 128 | > 128 | > 128 | > 128 | > 128 | > 128 |  |  |  |  |  |  |  |  | 
Cn1c(C(=O)NNc2ccc(F)cc2)cccc1=O [Ex. 1, 1-Methyl-6-oxo-1,6-dihydro-pyridine-2-carboxylic acid N′-(4-fluoro-phenyl)-hydrazide] | 0.5 (≈ 1.91 µM) | > 128 | > 128 | > 128 | > 128 | > 128 | > 128 | 64 (≈ 245 µM) |  |  |  |  |  |  |  |  | 
Cn1cc(C(=O)NNc2ccc(F)cc2)ccc1=O [Ex. 19, 1-Methyl-6-oxo-1,6-dihydropyridine-3-carboxylic acid N′-(4-fluorophenyl)-hydrazide] | 0.25 (≈ 0.957 µM) | > 128 | > 128 | > 128 | > 128 | > 128 | > 128 | > 128 |  |  |  |  |  |  |  |  | 
CN(C)C(=O)Cn1c(C(=O)NNc2ccc(F)cc2)cccc1=O [Ex. 14, 1-(2-(Dimethylamino)-2-oxoethyl)-6-oxo-1,6-dihydropyridine-2-carboxylic acid N′-(4-fluorophenyl)-hydrazide] |  |  |  |  |  |  |  |  | 0.25 (≈ 0.752 µM) | > 128 | > 128 | > 128 | > 128 | > 128 | > 128 | > 128 | 
1-Cyclopropylmethyl-6-oxo-1,6-dihydro-pyridine-2-carboxylic acid N′-(4-fluorophenyl)-hydrazide [Ex. 6] |  |  |  |  |  |  |  |  |  |  |  |  |  |  |  |  | MIC (A. baumannii; A. baumannii, 37° C., 24 hours, Cation adjusted Mueller-Hinton Broth): <0.25 µg/mL; MIC (S. aureus; S. aureus, 37° C., 24 hours, Cation adjusted Mueller-Hinton Broth): >128 µg/mL; MIC (S. pneumoniae; S. pneumoniae, 37° C., 24 hours, 2.5% lysed horse blood, 5% CO2): >128 µg/mL; MIC (E. faecium; E. faecium, 37° C., 24 hours, 2.5% lysed horse blood): >128 µg/mL; MIC (P. aeruginosa; P. aeruginosa, 37° C., 24 hours, Cation adjusted Mueller-Hinton Broth): >128 µg/mL; MIC (K. pneumoniae; K. pneumoniae, 37° C., 24 hours, Cation adjusted Mueller-Hinton Broth): >128 µg/mL; MIC (E. aerogenes; E. aerogenes, 37° C., 24 hours, Cation adjusted Mueller-Hinton Broth): >128 µg/mL; MIC (E. coli; E. coli, 37° C., 24 hours, Cation adjusted Mueller-Hinton Broth): >128 µg/mL
NC(=O)Cn1c(C(=O)NNc2ccc(F)cc2)cccc1=O [Ex. 15, 1-(2-Amino-2-oxoethyl)-6-oxo-1,6-dihydropyridine-2-carboxylic acid N′-(4-fluorophenyl)-hydrazide] |  |  |  |  |  |  |  |  | 0.5 (≈ 1.64 µM) | > 128 | > 128 | > 128 | > 128 | > 128 | > 128 | > 128 | 
COc1cc(C(=O)NNc2ccc(F)cc2)n(C)c(=O)c1 [Ex. 21, 4-Methoxy-1-methyl-6-oxo-1,6-dihydropyridine-2-carboxylic acid N′-(4-fluorophenyl)-hydrazide] | 0.25 (≈ 0.858 µM) | > 128 | > 128 | > 128 | > 128 | > 128 | > 128 | > 128 |  |  |  |  |  |  |  |  | 
Cn1c(C(=O)NNc2ccc(F)cc2F)cccc1=O [Ex. 12, 1-Methyl-6-oxo-1,6-dihydropyridine-2-carboxylic acid N′-(2,4-difluorophenyl)-hydrazide] |  |  |  |  |  |  |  |  | 0.25 (≈ 0.895 µM) | > 128 | > 128 | > 128 | > 128 | > 128 | > 128 | > 128 | 
CN(NC(=O)c1cccc(=O)n1C)c1ccc(F)cc1 [Ex. 20, 1-Methyl-6-oxo-1,6-dihydropyridine-2-carboxylic acid N′-(4-fluorophenyl)-N′-methyl-hydrazide] |  |  |  |  |  |  |  |  | 64 (≈ 232 µM) | > 128 | > 128 | > 128 | > 128 | > 128 | > 128 | > 128 | 
CCn1c(C(=O)NNc2ccc(F)cc2)cccc1=O [Ex. 2, 1-Ethyl-6-oxo-1,6-dihydro-pyridine-2-carboxylic acid N′-(4-fluoro-phenyl)-hydrazide] |  |  |  |  |  |  |  |  | 1 (≈ 3.63 µM) | > 128 | > 128 | > 128 | > 128 | > 128 | > 128 | > 128 | 
COCCn1c(C(=O)NNc2ccc(F)cc2)cccc1=O [Ex. 3, 1-(2-methoxyethyl)-6-oxo-1,6-dihydro-pyridine-2-carboxylic acid N′-(4-fluorophenyl)-hydrazide] |  |  |  |  |  |  |  |  | < 0.25 | > 128 | > 128 | > 128 | > 128 | > 128 | > 128 | > 128 | 
COc1ccc(NNC(=O)c2cccc(=O)n2C)cc1 [Ex. 9, 1-Methyl-6-oxo-1,6-dihydropyridine-2-carboxylic acid N′-(4-methoxyphenyl)-hydrazide] |  |  |  |  |  |  |  |  | 0.25 (≈ 0.915 µM) | > 128 | > 128 | > 128 | > 128 | > 128 | > 128 | > 128 | 
Cn1c(C(=O)NNc2c(F)cccc2F)cccc1=O [Ex. 13, 1-Methyl-6-oxo-1,6-dihydropyridine-2-carboxylic acid N′-(2,6-difluorophenyl)-hydrazide] |  |  |  |  |  |  |  |  | 0.5 (≈ 1.79 µM) | > 128 | > 128 | > 128 | > 128 | > 128 | > 128 | > 128 | 
